One block for each compound: values may come before it.
Experiments:
Daudi = test: Cytotoxicity against human Daudi cells assessed as decrease in cell viability after 72 hrs by CCK8 assay; type: functional, cell-based
MIA PaCa-2 = test: Cytotoxicity against human MIAPaCa2 cells assessed as decrease in cell viability after 72 hrs by CCK8 assay; type: functional, cell-based; conditions: MIA PaCa-2, 72 h
T47D [1] = test: Cytotoxicity against human T47D cells assessed as decrease in cell viability after 72 hrs by CCK8 assay; type: functional, cell-based
HepG2 = test: Cytotoxicity against human HepG2 cells assessed as decrease in cell viability after 72 hrs by CCK8 assay; type: functional, cell-based; conditions: HepG2, 72 h
A549 [2] = test: Cytotoxicity against human A549 cells assessed as decrease in cell viability after 72 hrs by CCK8 assay; type: functional, cell-based; conditions: A549, 72 h
Lu-99 cell line [3] = test: Antitumor activity against human LU99 cells xenografted in BALB/cSLC-nu/nu mouse assessed as tumor growth inhibition at 40 mg/kg, iv administered in liposomal formulation on day 1, 4, 8, 11, 15, 18 measured on day 22 relative to control; type: functional; conditions: Lu-99, iv, read-out: TGI
Lu-99 cell line [4] = test: Cytotoxicity against human LU99 cells assessed as decrease in cell viability after 72 hrs by CCK8 assay; type: functional, cell-based; conditions: Lu-99, 72 h
Lu-99 cell line [5] = test: Antitumor activity against human LU99 cells xenografted in BALB/cSLC-nu/nu mouse assessed as tumor growth inhibition at 100 mg/kg, po qd administered for 14 days measured on day 15 relative to control; type: functional; conditions: Lu-99, po, read-out: TGI
CWR22R [6] = test: Cytotoxicity against human 22Rv1 cells assessed as decrease in cell viability after 72 hrs by CCK8 assay; type: functional, cell-based; conditions: 22Rv1, 72 h
MKN-45 = test: Cytotoxicity against human MKN45 cells assessed as decrease in cell viability after 72 hrs by CCK8 assay; type: functional, cell-based; conditions: MKN-45, 72 h
DU-4475 [7] = test: Cytotoxicity against human DU4475 cells assessed as decrease in cell viability after 72 hrs by CCK8 assay; type: functional, cell-based; conditions: DU-4475, 72 h
MKN-1 = test: Cytotoxicity against human MKN1 cells assessed as decrease in cell viability after 72 hrs by CCK8 assay; type: functional, cell-based; conditions: MKN-1, 72 h
HCT-116 = test: Cytotoxicity against human HCT116 cells assessed as decrease in cell viability after 72 hrs by CCK8 assay; type: functional, cell-based; conditions: HCT-116, 72 h
UMUC3 = test: Cytotoxicity against human UM-UC-3 cells assessed as decrease in cell viability after 72 hrs by CCK8 assay; type: functional, cell-based; conditions: UMUC3, 72 h
MDA-MB-231 = test: Cytotoxicity against human MDA-MB-231 cells assessed as decrease in cell viability after 72 hrs by CCK8 assay; type: functional, cell-based; conditions: MDA-MB-231, 72 h
NCI-H69 = test: Cytotoxicity against human H69 cells assessed as decrease in cell viability after 72 hrs by MTT assay; type: functional, cell-based; conditions: NCI-H69, 72 h
KG-1a = test: Cytotoxicity against human KG1a cells assessed as decrease in cell viability after 48 hrs by MTT assay; type: functional, cell-based
A549 [8] = test: Antitumor activity against human A549 cells xenografted in BALB/cSLC-nu/nu mouse assessed as tumor growth inhibition at 10 mg/kg administered through oral gavage as qd for 14 days measured on day 15 relative to control; type: functional; conditions: read-out: TGI
U-937 = test: Cytotoxicity against human U937 cells assessed as decrease in cell viability after 48 hrs by MTT assay; type: functional, cell-based; conditions: U-937, 48 h
NCI-H2171 = test: Cytotoxicity against human NCI-H2171 cells assessed as decrease in cell viability after 72 hrs by MTT assay; type: functional, cell-based; conditions: NCI-H2171, 72 h
A549 [9] = test: Antiproliferative activity against human A549 cells; type: functional, cell-based
DMS-114 = test: Cytotoxicity against human DMS114 cells assessed as decrease in cell viability after 72 hrs by MTT assay; type: functional, cell-based; conditions: DMS-114, 72 h
MOLM-13 = test: Cytotoxicity against human MOLM13 cells assessed as decrease in cell viability after 48 hrs by MTT assay; type: functional, cell-based; conditions: MOLM-13, 48 h
CAKI-2 = test: Cytotoxicity against human Caki2 cells assessed as decrease in cell viability after 72 hrs by MTT assay; type: functional, cell-based; conditions: CAKI-2, 72 h
BGC-823 = test: Antiproliferative activity against human BGC823 cells after 24 to 96 hrs by CCK8 assay; type: functional, cell-based
DMS-273 = test: Cytotoxicity against human DMS273 cells assessed as decrease in cell viability after 72 hrs by MTT assay; type: functional, cell-based; conditions: DMS-273, 72 h
ML-2 = test: Cytotoxicity against human ML2 cells assessed as decrease in cell viability after 48 hrs by MTT assay; type: functional, cell-based; conditions: ML-2, 48 h
786-0 = test: Cytotoxicity against human 786-O cells assessed as decrease in cell viability after 72 hrs by MTT assay; type: functional, cell-based; conditions: 786-0, 72 h
NCI-H446 = test: Cytotoxicity against human NCI-H446 cells assessed as decrease in cell viability after 72 hrs by MTT assay; type: functional, cell-based; conditions: NCI-H446, 72 h
MV4-11 = test: Cytotoxicity against human MV4-11 cells assessed as decrease in cell viability after 48 hrs by MTT assay; type: functional, cell-based; conditions: MV4-11, 48 h
SBC-3 = test: Cytotoxicity against human SBC3 cells assessed as decrease in cell viability after 72 hrs by MTT assay; type: functional, cell-based; conditions: SBC-3, 72 h
[10] = Cytotoxicity against human VMRC-RCW cells assessed as decrease in cell viability after 72 hrs by MTT assay; type: functional, cell-based
NCI-H82 = test: Cytotoxicity against human H82 cells assessed as decrease in cell viability after 72 hrs by MTT assay; type: functional, cell-based; conditions: NCI-H82, 72 h
K562 = test: Cytotoxicity against human K562 cells assessed as decrease in cell viability after 48 hrs by MTT assay; type: functional, cell-based; conditions: K562, 48 h
[11] = Cytotoxicity against human H69AR cells assessed as decrease in cell viability after 72 hrs by MTT assay; type: functional, cell-based
769-P = test: Cytotoxicity against human 769-P cells assessed as decrease in cell viability after 72 hrs by MTT assay; type: functional, cell-based
KG-1 = test: Cytotoxicity against human KG1 cells assessed as decrease in cell viability after 48 hrs by MTT assay; type: functional, cell-based; conditions: KG-1, 48 h
NCI-H524 = test: Cytotoxicity against human NCI-H524 cells assessed as decrease in cell viability after 72 hrs by MTT assay; type: functional, cell-based; conditions: NCI-H524, 72 h
CWR22R [12] = test: Antiproliferative activity against human 22Rv1 cells; type: functional, cell-based
A549 [13] = test: Antitumor activity against human A549 cells xenografted in BALB/cSLC-nu/nu mouse assessed as tumor growth inhibition at 10 mg/kg, iv qd administered for 14 days measured on day 15 relative to control; type: functional; conditions: read-out: TGI
DU-4475 [14] = test: Antiproliferative activity against human DU4475 cells; type: functional, cell-based
SBC-5 = test: Cytotoxicity against human SBC5 cells assessed as decrease in cell viability after 72 hrs by MTT assay; type: functional, cell-based; conditions: SBC-5, 72 h
CAKI-1 = test: Cytotoxicity against human Caki1 cells assessed as decrease in cell viability after 72 hrs by MTT assay; type: functional, cell-based; conditions: CAKI-1, 72 h
T47D [15] = test: Antiproliferative activity against human T47D cells; type: functional, cell-based
[16] = Cytotoxicity against human KOCL48 cells assessed as decrease in cell viability after 48 hrs by MTT assay; type: functional, cell-based
SGC-7901 = test: Antiproliferative activity against human SGC7901 cells after 24 to 96 hrs by CCK8 assay; type: functional, cell-based
[17] = Antitumor activity against human gastric cancer cells xenografted in NOD/SCID mouse assessed as tumor growth inhibition at 15 mg/kg, iv administered once in every 2 days for 2 weeks measured on day 15 relative to control; type: functional; conditions: read-out: TGI
THP-1 = test: Cytotoxicity against human THP1 cells assessed as decrease in cell viability after 48 hrs by MTT assay; type: functional, cell-based; conditions: THP-1, 48 h
NCI-H146 = test: Cytotoxicity against human NCI-H146 cells assessed as decrease in cell viability after 72 hrs by MTT assay; type: functional, cell-based; conditions: NCI-H146, 72 h

SMILES: Cc1cc(O)c(-c2ccc([C@@H](C)CN(C)C)cc2)c2c1[nH]c(=O)c1sccc12
IC50 (Daudi): 25 nM
IC50 (MIA PaCa-2): 30 nM
IC50 (T47D [1]): 72 nM
IC50 (HepG2): 19 nM
IC50 (A549 [2]): 31 nM
inhibition in vivo at 40 mg/kg (Lu-99 cell line [3]): 110%
IC50 (Lu-99 cell line [4]): 7.6 nM
inhibition in vivo at 100 mg/kg (Lu-99 cell line [5]): 113%
IC50 (CWR22R [6]): 50 nM
IC50 (MKN-45): 39 nM
IC50 (DU-4475 [7]): 53 nM
IC50 (MKN-1): 38 nM
IC50 (HCT-116): 33 nM
IC50 (UMUC3): 32 nM
IC50 (MDA-MB-231): 73 nM

IC50 (A549 [9]): 6.7 nM
IC50 (BGC-823): 25 nM
IC50 (T47D [15]): 4.3 nM
IC50 (SGC-7901): 25 nM
SMILES: CC(=O)c1cnc2ccc(-c3cc(Cl)c(O)c(Cl)c3)nc2c1N[C@H]1CC[C@H](CN(C)C)CC1
IC50 (NCI-H69): 0.8 nM
IC50 (KG-1a): 26.4 nM
inhibition in vivo at 10 mg/kg (A549 [8]): 124%
IC50 (U-937): 69.8 nM
IC50 (NCI-H2171): 4.7 nM
IC50 (DMS-114): 2.1 nM
IC50 (MOLM-13): 17.5 nM
IC50 (CAKI-2): 38.7 nM
IC50 (DMS-273): 8.4 nM
IC50 (ML-2): 33.8 nM
IC50 (786-0): 23.9 nM
IC50 (NCI-H446): 6.2 nM
IC50 (MV4-11): 7.9 nM
IC50 (SBC-3): 4.3 nM
IC50 [10]: 25.5 nM
IC50 (NCI-H82): 1.7 nM
IC50 (K562): 33 nM
IC50 [11]: 4.4 nM
IC50 (769-P): 20.1 nM
IC50 (KG-1): 16.9 nM
IC50 (NCI-H524): 1.9 nM
IC50 (CWR22R [12]): 6 nM
inhibition in vivo at 10 mg/kg (A549 [13]): 108%
IC50 (DU-4475 [14]): 2.3 nM
IC50 (SBC-5): 2.8 nM
IC50 (CAKI-1): 12.4 nM
IC50 [16]: 16.9 nM
inhibition in vivo at 15 mg/kg [17]: 106 to 112%
IC50 (THP-1): 15.6 nM
IC50 (NCI-H146): 7.9 nM
